Source: ChEMBL document CHEMBL4725373, “Introduction of Scaffold Nitrogen Atoms Renders Inhibitors of the Malarial l-Lactate Transporter, PfFNT, Effective against the Gly107Ser Resistance Mutation” (J Med Chem, 2020)
Calls of active or inactive are those of the source. The rule behind the calls is not given here.

Tests used:
[1] = (§1) Inhibition of Plasmodium falciparum FNT G107S mutant expressed in Saccharomyces cerevisiae W303-1A del-jen1 ady2-del (MATa, can1-100, ade2-loc, his3-11-15, leu2-3,-112, trp1-1-1, ura3-1, jen1::kanMX4, ady2::hphMX4) assessed as reduction in [1-14C]-L-lactate uptake incubated for 10 to 15 mins followed by [1-14C]-L-lactate addition and measured after 120 secs by liquid scintillation counting method
Plasmodium falciparum [2] = experiment: Antiplasmodial activity against Plasmodium falciparum 3D7 assessed as reduction in parasitemia incubated for 48 hrs supplemented with fresh medium containing compound at 24 hrs by LSR II FACS method; format: functional, organism-based
[3] = as §1, with “FNT” for “FNT G107S mutant”, “30” for “120”
Plasmodium falciparum [4] = experiment: Antiplasmodial activity against Plasmodium falciparum 3D7 assessed as reduction in parasite regrowth at 0.75 uM incubated for 14 days followed by compound washout and measured after 30 days; format: functional, organism-based; details: time 14.0 day
Plasmodium falciparum [5] = experiment: Antiplasmodial activity against Plasmodium falciparum 3D7 assessed as reduction in parasitemia after 24 hrs by LSR II FACS method; format: functional, organism-based; details: 3D7, 24 h
[6] = as §1, with “FNT” for “FNT G107S mutant”, “20” for “10 to 15”, “addition” for “addition and measured after 120 secs”
[7] = as §1, with “20” for “10 to 15”, “addition” for “addition and measured after 120 secs”
Plasmodium falciparum [8] = experiment: Antiplasmodial activity against Plasmodium falciparum 3D7 assessed as reduction in parasite regrowth at 0.45 uM incubated for 14 days followed by compound washout and measured after 7 days; format: functional, organism-based; details: time 14.0 day

Row | Compound | IC50 [1] | IC50 [3] | further results
1 | O=C(/C=C(\O)C(F)(F)C(F)(F)F)c1cccnc1 | 630 nM | 110 nM | EC50 (Plasmodium falciparum [2]): 240 nM; Activity (Plasmodium falciparum [4]): Active
2 | O=C(/C=C(\O)C(F)(F)C(F)(F)F)c1cnc2ccccc2c1 | 96000 nM | 240 nM | 
3 | O=C(/C=C(\O)C(F)(F)C(F)(F)F)c1cc[nH]c1 | 13000 nM | 200 nM | 
4 | COc1ccc(C(=O)/C=C(\O)C(F)(F)C(F)(F)F)cn1 | 260 nM | 110 nM | EC50 (Plasmodium falciparum [2]): 3880 nM
5 | O=C(/C=C(\O)C(F)(F)C(F)(F)F)c1cc2ccccc2o1 | 17000 nM | 190 nM | 
6 | O=C(/C=C(\O)C(F)(F)C(F)(F)F)c1ccc[nH]1 | 12000 nM | 160 nM | 
7 | Cc1ccc(C(=O)/C=C(\O)C(F)(F)C(F)(F)F)cn1 | 1700 nM | 150 nM | 
8 | CCCCC(F)(F)/C(O)=C/C(=O)c1cccnc1 | 24000 nM | 360 nM | EC50 (Plasmodium falciparum [2]): 20100 nM
9 | O=C(/C=C(\O)C(F)(F)C(F)(F)F)c1cnccn1 | 1200 nM | 460 nM | 
10 | O=C(/C=C(\O)C(F)(F)C(F)(F)F)c1cccnn1 | 3800 nM | 860 nM | 
11 | O=C(/C=C(\O)C(F)(F)C(F)(F)F)c1ccccn1 | 580 nM | 150 nM | EC50 (Plasmodium falciparum [2]): 13500 nM
12 | CC(C)(O)CC(=O)/C=C(\O)C(F)(F)C(F)(F)F | 490000 nM | 1100 nM | 
13 | O=C(/C=C(\O)C(F)(F)CO)c1cccnc1 |  | 5500 nM | 
14 | Cc1[nH]nc(C(F)(F)F)c1Cc1sc2c(c1C(=O)N1C[C@](C)(O)CO1)c(=O)n(C)c(=O)n2C(C)C |  |  | Activity (Plasmodium falciparum [2]): inactive
15 | COc1ccc(CCC(=O)/C=C(\O)C(F)(F)C(F)(F)F)cc1 | 6300 nM | 190 nM | 
16 | O=C(/C=C(\O)C(F)(F)C(F)(F)F)c1ccncc1 | 22000 nM | 150 nM | 
17 | COc1ccc(C(=O)/C=C(\O)C(F)(F)C(F)(F)F)cc1 |  |  | EC50 (Plasmodium falciparum [5]): 3400 nM; IC50 [6]: 140 nM; IC50 [7]: 2600 nM
18 | Cn1ccc(C(=O)/C=C(\O)C(F)(F)C(F)(F)F)c1 | 14000 nM | 130 nM | 
19 | O=C(/C=C(\O)C(F)(F)C(F)(F)F)/C=C/c1ccccc1 | 26000 nM | 290 nM | 
20 | O=C(/C=C(\O)C(F)(F)C(F)(F)F)c1ccc(Cl)cn1 | 510 nM | 230 nM | EC50 (Plasmodium falciparum [2]): 14000 nM
21 | COc1ccc(C(=O)/C=C(\O)C(F)(F)C(F)(F)F)c(O)c1 |  |  | EC50 (Plasmodium falciparum [5]): 140 nM; IC50 [6]: 170 nM; Activity (Plasmodium falciparum [8]): inactive; IC50 [7]: 20000 nM
22 | COc1ccc(CC(=O)/C=C(\O)C(F)(F)C(F)(F)F)cc1 | 69000 nM | 1900 nM | 
23 | O=C(/C=C(\O)C(F)(F)C(F)(F)F)Nc1ccccc1 | 378000 nM | 18000 nM | 
